Reference: the supplement of paper PMC4862054

Experiments:
Conditions in all cases: incubation time: 72 h
BT-474 [1] = test: drug sensitivity score (DSS), CellTox Green (DSS (AUC-based score)); higher = stronger drug effect (viability inhibition or cytotoxicity); extreme values may be limits of the assay
Outline: (§1)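 In 384-well plates, compound was laid out at 5 concentrations in 10-fold steps over a 10,000-fold range specific to each compound, and breast cancer cell lines were seeded on top in 20 µl suspension for a 72 h incubation. CellTox Green fluorescence and then CellTiter-Glo luminescence were read, and each plate was normalised to 0.1 % DMSO and a positive kill control. The drug sensitivity score was calculated from the area under the fitted dose-response curve.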

CAL-85-1 [2] = test: as above
Outline: as §1

HDQ-P1 [3] = test: as above
Outline: as §1

MFM-223 [4] = test: as above
Outline: as §1

HCC1599 [5] = test: as above
Outline: as §1

CAL-120 [6] = test: as above
Outline: as §1

MCF-10A [7] = test: as above
Outline: as §1

BT-549 [8] = test: as above
Outline: as §1

HCC1937 [9] = test: as above
Outline: as §1

MDA-MB-468 [10] = test: as above
Outline: as §1

CAL-51 [11] = test: as above
Outline: as §1

HCC1143 [12] = test: as above
Outline: as §1

DU-4475 [13] = test: as above
Outline: as §1

MDA-MB-453 [14] = test: as above
Outline: as §1

MDA-MB-231 [15] = test: as above
Outline: as §1

CAL-148 [16] = test: as above
Outline: as §1

BT-474 [17] = test: drug sensitivity score (DSS), CellTiter-Glo (DSS (AUC-based score)); higher = stronger drug effect (viability inhibition or cytotoxicity); extreme values may be limits of the assay
Outline: as §1

SK-BR-3 = test: as above
Outline: as §1

Hs578T = test: as above
Outline: as §1

CAL-85-1 [18] = test: as above
Outline: as §1

HDQ-P1 [19] = test: as above
Outline: as §1

MFM-223 [20] = test: as above
Outline: as §1

HCC1599 [21] = test: as above
Outline: as §1

CAL-120 [22] = test: as above
Outline: as §1

MCF-10A [23] = test: as above
Outline: as §1

BT-549 [24] = test: as above
Outline: as §1

HCC1937 [25] = test: as above
Outline: as §1

MDA-MB-468 [26] = test: as above
Outline: as §1

CAL-51 [27] = test: as above
Outline: as §1

HCC1143 [28] = test: as above
Outline: as §1

DU-4475 [29] = test: as above
Outline: as §1

MDA-MB-436 = test: as above
Outline: as §1

MDA-MB-453 [30] = test: as above
Outline: as §1

MDA-MB-231 [31] = test: as above
Outline: as §1

CAL-148 [32] = test: as above
Outline: as §1

Compound: c1ccc([C@H]2CN3CCSC3=N2)cc1 [Levamisole]
- drug sensitivity score (BT-474 [1]): 0
- drug sensitivity score (CAL-85-1 [2]): 0
- drug sensitivity score (HDQ-P1 [3]): 2.62
- drug sensitivity score (MFM-223 [4]): 0
- drug sensitivity score (HCC1599 [5]): 0
- drug sensitivity score (CAL-120 [6]): 0
- drug sensitivity score (MCF-10A [7]): 0
- drug sensitivity score (BT-549 [8]): 0
- drug sensitivity score (HCC1937 [9]): 0
- drug sensitivity score (MDA-MB-468 [10]): 0
- drug sensitivity score (CAL-51 [11]): 0
- drug sensitivity score (HCC1143 [12]): 0
- drug sensitivity score (DU-4475 [13]): 0
- drug sensitivity score (MDA-MB-453 [14]): 1.72
- drug sensitivity score (MDA-MB-231 [15]): 1.47
- drug sensitivity score (CAL-148 [16]): 0
- drug sensitivity score (BT-474 [17]): 0
- drug sensitivity score (SK-BR-3): 0
- drug sensitivity score (Hs578T): 0
- drug sensitivity score (CAL-85-1 [18]): 0
- drug sensitivity score (HDQ-P1 [19]): 0
- drug sensitivity score (MFM-223 [20]): 0
- drug sensitivity score (HCC1599 [21]): 0
- drug sensitivity score (CAL-120 [22]): 0
- drug sensitivity score (MCF-10A [23]): 0
- drug sensitivity score (BT-549 [24]): 0
- drug sensitivity score (HCC1937 [25]): 0
- drug sensitivity score (MDA-MB-468 [26]): 0
- drug sensitivity score (CAL-51 [27]): 0
- drug sensitivity score (HCC1143 [28]): 0
- drug sensitivity score (DU-4475 [29]): 0
- drug sensitivity score (MDA-MB-436): 0
- drug sensitivity score (MDA-MB-453 [30]): 0
- drug sensitivity score (MDA-MB-231 [31]): 0
- drug sensitivity score (CAL-148 [32]): 0
